Experimental data reported in patent US8394969B2, “Cyclic benzimidazole derivatives useful as anti-diabetic agents” (Merck Sharp & Dohme Corp., priority 2008, dated 2013).
Where a name gives a salt, the structure may show the parent alone.

target: recombinant human AMPK complex 1 (containing α1β1γ1) (Homo sapiens, UniProt Q13131+Q9Y478); test: […] (in vitro AMPK activation assay); type: biochemical; settings: read-out: % Maximum AMP Activation of human AMPK Complex 1, recombinant human AMPK complex 1 (α1β1γ1); basal activity subtracted
Sequence (Q13131 whole entry): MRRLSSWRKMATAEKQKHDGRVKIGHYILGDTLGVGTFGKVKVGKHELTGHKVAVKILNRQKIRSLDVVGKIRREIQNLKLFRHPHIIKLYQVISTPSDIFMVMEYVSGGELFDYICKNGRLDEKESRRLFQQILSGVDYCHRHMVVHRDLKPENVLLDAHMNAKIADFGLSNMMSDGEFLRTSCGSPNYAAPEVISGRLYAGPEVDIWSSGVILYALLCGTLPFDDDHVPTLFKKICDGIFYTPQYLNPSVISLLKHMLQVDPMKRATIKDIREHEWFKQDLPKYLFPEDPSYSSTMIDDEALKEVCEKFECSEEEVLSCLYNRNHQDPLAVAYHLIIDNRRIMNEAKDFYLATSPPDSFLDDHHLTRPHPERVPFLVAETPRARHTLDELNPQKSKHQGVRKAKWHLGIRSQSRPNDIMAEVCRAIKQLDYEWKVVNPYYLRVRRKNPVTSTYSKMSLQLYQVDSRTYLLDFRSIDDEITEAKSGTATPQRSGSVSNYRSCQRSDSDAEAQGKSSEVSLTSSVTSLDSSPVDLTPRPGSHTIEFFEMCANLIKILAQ
Sequence (Q9Y478 whole entry): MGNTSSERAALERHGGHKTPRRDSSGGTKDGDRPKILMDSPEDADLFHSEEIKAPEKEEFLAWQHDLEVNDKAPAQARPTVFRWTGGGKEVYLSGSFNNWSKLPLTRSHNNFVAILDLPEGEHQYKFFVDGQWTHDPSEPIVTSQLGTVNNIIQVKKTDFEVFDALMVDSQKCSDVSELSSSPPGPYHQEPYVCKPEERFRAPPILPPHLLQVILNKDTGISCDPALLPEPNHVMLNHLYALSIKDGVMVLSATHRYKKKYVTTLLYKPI
Sequence (P54619 whole entry partner): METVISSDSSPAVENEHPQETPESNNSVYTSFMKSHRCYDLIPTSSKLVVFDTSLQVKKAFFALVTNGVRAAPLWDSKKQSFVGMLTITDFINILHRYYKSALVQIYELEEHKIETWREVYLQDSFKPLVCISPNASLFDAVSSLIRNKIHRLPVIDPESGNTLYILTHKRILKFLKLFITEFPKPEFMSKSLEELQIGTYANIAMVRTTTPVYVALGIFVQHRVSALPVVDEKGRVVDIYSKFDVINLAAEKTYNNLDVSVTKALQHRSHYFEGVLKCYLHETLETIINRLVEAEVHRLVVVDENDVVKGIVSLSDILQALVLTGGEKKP

SMILES | Emax
Cc1ccc(Oc2nc3cc(-c4ccc(OC(F)(F)F)cc4)c(Cl)cc3[nH]2)cc1C(=O)O [Example 363, Ammonium 5-({6-chloro-5-[4-(trifluoromethoxy)phenyl]-1H-benzimidazol-2-yl}oxy)-2-methylbenzoate] | > 80%
O=C(O)c1cccc(Oc2nc3cc(-c4ccc(-c5ccccc5)cc4)c(Cl)cc3[nH]2)c1 [Example 56, 3-(5-biphenyl-4-yl-6-chloro-1H-benzo-imidazol-2-yloxy)-benzoic acid, ammonium salt] | > 80%

same assay, conditions: recombinant human AMPK complex 1 (α1β1γ1); basal activity subtracted; read-out: % Maximum AMP Activation of human AMPK Complex 1

SMILES | Emax
Cc1ccc(Oc2nc3cc(-c4ccc5c(ccn5C)c4)c(F)cc3[nH]2)cc1C(=O)O [Example 249, 5-[6-Fluoro-5-(1-methyl-1H-indol-5-yl)-1H-benzoimidazol-2-yloxy]-2-methyl-benzoic acid] | > 80%
Cc1ccc(C#Cc2cc3nc(Oc4ccc(C)c(C(=O)O)c4)[nH]c3cc2Cl)cc1 [Example 45, 5-(6-Chloro-5-p-tolyethylnyl-1H-benzoimidazol-2-yloxy)-2-methyl-benzoic acid] | > 80%
Cn1ccc2cc(-c3cc4nc(Oc5ccc(CC(=O)O)cc5)[nH]c4cc3Cl)ccc21 [Example 243, {4-[6-Chloro-5-(1-methyl-1H-indol-5-yl)-1H-benzoimidazol-2-yloxy]-phenyl}-acetic acid] | > 80%
CCn1ccc2cc(-c3cc4nc(Oc5ccc(C)c(C(=O)O)c5)[nH]c4cc3Cl)ccc21 [Example 254, 5-[6-Chloro-5-(1-ethyl-1H-indol-5-yl)-1H-benzoimidazol-2-yloxy]-2-methyl-benzoic acid] | > 80%
Cc1ccc(Oc2nc3cc(-c4ccc(-c5ccc(C(=O)O)cc5)cc4)c(Cl)cc3[nH]2)cc1C(=O)O [Example 102, 4′-[2-(3-Carboxy-4-methyl-phenoxy)-6-chloro-1H-benzoimidazol-5-yl]-biphenyl-4-carboxylic acid] | > 80%
Cc1ccc(Oc2nc3cc(-c4cnc5ccccc5c4)c(Cl)cc3[nH]2)cc1C(=O)O [Example 148, 2-(3-carboxy-4-methylphenoxy)-6-chloro-5-quinolin-3-yl-1H-3,1-benzimidazol-3-ium chloride] | > 80%
Cc1ccc(Oc2nc3cc(C#Cc4ccc(-c5cccnc5)cc4)c(Cl)cc3[nH]2)cc1C(=O)O [Example 70, 5-[6-Chloro-5-(4-pyridin-3-yl-phenylethynyl)-1H-benzoimidazol-2-yloxy]-2-methyl-benzoic acid] | > 80%
Cc1cc(Oc2nc3cc(-c4ccc(-c5ccc(O)nc5)cc4)c(Cl)cc3[nH]2)cc(C(=O)O)c1C [Example 313, 5-{6-Chloro-5-[4-(6-hydroxy-pyridin-3-yl)-phenyl]-1H-benzoimidazol-2-yloxy}-2,3-dimethyl-benzoic acid] | > 80%
Cc1ccc(Oc2nc3cc(-c4ccc5c(c4)CCN5)c(Cl)cc3[nH]2)cc1C(=O)O [Example 285, 5-[6-Chloro-5-(2,3-dihydro-1H-indol-5-yl)-1H-benzoimidazol-2-yloxy]-2-methyl-benzoic acid] | > 80%
O=C(O)Cc1cc(Oc2nc3cc(-c4ccc(-c5ccccc5)cc4)c(Cl)cc3[nH]2)ccc1O [Example 17, [5-(5-Biphenyl-4-yl-6-chloro-1H-benzoimidazol-2-yloxy)-2-hydroxy-phenyl]-acetic acid] | > 80%
Cc1ccc(Oc2nc3cc(-c4ccc5c(c4)n(C)c(=O)n5C)c(Cl)cc3[nH]2)cc1C(=O)O [Example 235, 5-(6-Chloro-1′,3′-dimethyl-2′-oxo-2′,3′-dihydro-1H,1′H-[5,5′]bibenzoimidazolyl-2-yloxy)-2-methyl-benzoic acid] | > 80%
COC(=O)c1cc(Oc2nc3cc(C#Cc4ccc(OC(C)=O)cc4)c(Cl)cc3[nH]2)ccc1C [Example 117, 5-[5-(4-Acetoxy-phenylethynyl)-6-chloro-1H-benzoimidazol-2-yloxy]-2-methyl-benzoic acid methyl ester] | > 80%
O=C1Cc2cc(Oc3nc4cc(-c5ccc(-c6ccccc6)cc5)c(Cl)cc4[nH]3)ccc2O1 [Example 16, 5-(5-Biphenyl-4-yl-6-chloro-1H-benzoimidazol-2-yloxy)-3H-benzofuran-2-one] | > 80%
Clc1cc2[nH]c(Oc3cccc(-c4nn[nH]n4)c3)nc2cc1-c1ccc(-c2ccccc2)cc1 [Example 33, 5-Biphenyl-4-yl-6-chloro-2-[3-(2H-tetrazol-5-yl)-phenoxy]-1H-benzoimidazol] | > 80%
Cc1ccc(Oc2nc3cc(-c4ccc(C(C)(C)N)cc4)c(Cl)cc3[nH]2)cc1C(=O)O [Example 297, 2-{4-[2-(3-carboxy-4-methylphenoxy)-6-chloro-1H-benzimidazol-5-yl]phenyl}propan-2-aminium trifluoroacetate] | > 80%
Cc1ccc(Oc2nc3cc(-c4cccc(-c5ccccc5)c4)c(Cl)cc3[nH]2)cc1C(=O)O [Example 302, 5-(5-Biphenyl-3-yl-6-chloro-1H-benzoimidazol-2-yloxy)-2-methyl-benzoic acid] | > 80%
Cc1ccc(Oc2nc3cc(C#Cc4cccc(O)c4)c(Cl)cc3[nH]2)cc1C(=O)O [Example 124, 5-[6-Chloro-5-(3-hydroxy-phenylethynyl)-1H-benzoimidazol-2-yloxy]-2-methyl-benzoic acid] | > 80%

SMILES | Emax
Cc1ccc(Oc2nc3cc(-c4ccc5c(c4)CCN5CCO)c(Cl)cc3[nH]2)cc1C(=O)O [Example 319, 5-({6-chloro-5-[1-(2-hydroxyethyl)-2,3-dihydro-1H-indol-5-yl]-1 H-benzimidazol-2-yl}oxy)-2-methylbenzoic acid] | > 80%
Cc1ccc(Oc2nc3cc(C#Cc4cncn4C)c(Cl)cc3[nH]2)cc1C(=O)O [Example 134, 5-[6-Chloro-5-(3-methyl-3H-imidazol-4-ylethynyl)-1H-benzoimidazol-2-yloxy]-2-methyl-benzoic acid] | > 80%
Cc1ccc(Oc2nc3cc(C#Cc4ccc(-c5cn[nH]c5)cc4)c(Cl)cc3[nH]2)cc1C(=O)O [Example 82, 5-{6-Chloro-5-[4-(1H-pyrazol-4-yl)-phenylethynyl]-1H-benzoimidazol-2-yloxy}-2-methyl-benzoic acid] | > 80%
Cc1ccc(Oc2nc3cc(-c4ccc(C(=O)O)c5c4c(C)cn5C)c(Cl)cc3[nH]2)cc1C(=O)O [Example 270, 4-[2-(3-Carboxy-4-methyl-phenoxy)-6-chloro-1H-benzoimidazol-5-yl]-1,3-dimethyl-1H-indole-7-carboxylic acid] | > 80%
Cc1ccc(Oc2nc3cc(-c4ccc5[nH]ncc5c4)c(Cl)cc3[nH]2)cc1C(=O)O [Example 153, 5-[6-Chloro-5-(1H-indazol-5-yl)-1H-benzoimidazol-2-yloxy]-2-methyl-benzoic acid] | > 80%
Cc1ccc(Oc2nc3cc(-c4ccc(C(C)N)cc4)c(Cl)cc3[nH]2)cc1C(=O)O (stereo not drawn) [Example 293, 1-{4-[2-(3-carboxy-4-methylphenoxy)-6-chloro-1H-benzimidazol-5-yl]phenyl}ethanaminium trifluoroacetate] | > 80%
Cc1ccc(Oc2nc3cc(-c4ccc(-c5cccc(F)c5)cc4)c(Cl)cc3[nH]2)cc1C(=O)O [Example 185, 5-{[6-chloro-5-(3′-fluorobiphenyl-4-yl)-1H-benzimidazol-2-yl]oxy}-2-methylbenzoic acid] | > 80%
Cc1ccc(Oc2nc3cc(-c4ccc5c(c4)C(C)(C)CCC5(C)C)c(Cl)cc3[nH]2)cc1C(=O)O [Example 358, 5-[6-Chloro-5-(5,5,8,8-tetramethyl-5,6,7,8-tetrahydro-naphthalen-2-yl)-1H-benzoimidazol-2-yloxy]-2-methyl-benzoic acid] | > 80%
Cc1ccc(Oc2nc3cc(-c4ccc(-c5ccccc5)cc4)ccc3[nH]2)cc1C(=O)O [Example 207, 5-(5-Biphenyl-4-yl-1H-benzoimidazol-2-yloxy)-2-methyl-benzoic acid] | > 80%
Cc1ccc(Oc2nc3cc(-c4ccc5c(c4)CN(C(C)C)C5)c(Cl)cc3[nH]2)cc1C(=O)O [Example 299, 5-[2-(3-carboxy-4-methylphenoxy)-6-chloro-1H-benzimidazol-5-yl]-2-isopropyl-2,3-dihydro-1H-isoindolium trifluoroacetate] | > 80%
Cc1ccc(Oc2nc3cc(-c4ccc5ncccc5c4)c(Cl)cc3[nH]2)cc1C(=O)O [Example 150, 2-(3-carboxy-4-methylphenoxy)-6-chloro-5-quinolin-6-yl-1H-3,1-benzimidazol-3-ium chloride] | > 80%
O=C(O)c1ccc(Oc2nc3cc(-c4ccc(-c5ccccc5)cc4)c(Cl)cc3[nH]2)cc1O [Example 32, 4-(5-Biphenyl-4-yl-6-chloro-1H-benzoimidazol-2-yloxy)-2-hydroxy-benzoic acid] | > 80%
Cc1ccc(Oc2nc3cc(-c4ccc5c(c4)c4c(n5C)CCC4)c(Cl)cc3[nH]2)cc1C(=O)O [Example 281, 5-[6-Chloro-5-(4-methyl-1,2,3,4-tetrahydro-cyclopenta[b]indol-7-yl)-1H-benzoimidazol-2-yloxy]-2-methyl-benzoic acid] | > 80%
Cc1ccc(Oc2nc3cc(-c4ccc(C5CC5)c(N(C)C)c4)c(Cl)cc3[nH]2)cc1C(=O)O [Example 267, 5-[6-Chloro-5-(4-cyclopropyl-3-dimethylamino-phenyl)-1H-benzoimidazol-2-yloxy]-2-methyl-benzoic acid] | > 80%
COc1ccc(C#Cc2cc3nc(Oc4ccc(C)c(C(=O)O)c4)[nH]c3cc2Cl)cn1 [Example 129, 5-[6-Chloro-5-(6-methoxy-pyridin-3-ylethynyl)-1H-benzoimidazol-2-yloxy]-2-methyl-benzoic acid] | > 80%
Cc1ccc(Oc2nc3cc(-c4ccc(-c5c(C)noc5C)cc4)c(Cl)cc3[nH]2)cc1C(=O)O [Example 204, 5-({6-chloro-5-[4-(3,5-dimethylisoxazol-4-yl)phenyl]-1H-benzimidazol-2-yl}oxy)-2-methylbenzoic acid] | > 80%

same assay, conditions: recombinant human AMPK complex 1 (α1β1γ1); read-out: EC50

SMILES | EC50
COc1ccc(-c2cc3nc(Oc4ccc(C)c(C(=O)O)c4)[nH]c3cc2Cl)c(F)c1 [Example 326, 5-{[6-chloro-5-(2-fluoro-4-methoxyphenyl)-1H-benzimidazol-2-yl]oxy}-2-methylbenzoic acid] | 10 nM
